# According to patent US4056615A, “Lucknomycin and process for producing same” (U C B Societe Anonyme, priority 1975, dated 1977):
# “Also recorded” adds a separate entry of the source. Like-named read-outs stand apart in the source and are kept apart here.
# Tests used:
# Trichomonas vaginalis [1] = test: Anti-Trichomonas vaginalis activity, subcutaneous Trichomonas vaginalis abscess in mice; type: in vivo; conditions: subcutaneous injections at the level of the abscess
# From the text: This test is made in mice on a subcutaneous Trichomonas vaginalis abscess. Subcutaneous injections at the level of the abscess of a suspension (or solution) of the following products at various concentrations are used to determine the ED50.
# Staphylococcus aureus = test: Antibacterial spectrum, Staphylococcus aureus; type: cell-based; conditions: 10 mcg/ml, one day at 37° C.
# Protocol: (§1) Lucknomycin is introduced at different dilutions into a peptonedextrose medium inoculated with the organism which is to be tested. After incubation for from 2 to 5 days at 28° C., the number of microgrammes of antibiotic per milliliter of medium is determined which must be used to obtain complete inhibition of growth (MIC) of the organism in question. In order to better point out the antifungal activity of Lucknomycin, it is compared with that of other known antifungal antibiotics.
# (§2) The experimental conditions are the same as for the determination of the fungal spectrum, except that the incubation time is one day at 37° C.
# Streptococcus faecalis = test: Antibacterial spectrum, Streptococcus faecalis; type: cell-based; conditions: 10 mcg/ml, one day at 37° C.
# Protocol: as §1, §2
# Candida albicans = test: Anti-Candida albicans activity, experimental Candida albicans vaginitis in female rats; type: in vivo; conditions: per tablet: lucknomycin 5 mg., clotrimazole 20 mg., nystatin 4 mg.
# From the text: The test is made in female rats on experimental Candida albicans vaginitis.
# Trichomonas vaginalis [2] = test: Antiprotozoal activity, killing of a culture in full growth of Trichomonas vaginalis; type: cell-based; conditions: 0.5 mcg./ml.; within about 30 minutes
# Protocol: A concentration of 0.5 mcg./ml. of the antibiotic kills 50% of individuals of a culture in full growth of Trichomonas vaginalis within a period of about 30 minutes.
# [3] = test system: Lactobacillus acidophilus; test: Antibacterial spectrum, Lactobacillus acidophilus; type: cell-based; conditions: 10 mcg/ml, one day at 37° C.
# Protocol: as §1, §2
# Proteus mirabilis = test: Antibacterial spectrum, Proteus mirabilis; type: cell-based; conditions: 10 mcg/ml, one day at 37° C.
# Protocol: as §1, §2
# mice = test: Toxicity, lethal dose LD50 in mice; type: in vivo
# From the text: Lethal dose LD50 in mice in mg./kg. body weight:
# Trichomoras vaginalis = test: MIC, complete inhibition of growth, Trichomonas vaginalis; type: cell-based
# Protocol: as §1
# Klebsiella pneumoniae = test: Antibacterial spectrum, Klebsiella pneumoniae; type: cell-based; conditions: 10 mcg/ml, one day at 37° C.
# Protocol: as §1, §2
# Solubility = type: physicochemical
# Escherichia coli = test: Antibacterial spectrum, Escherichia coli; type: cell-based; conditions: 10 mcg/ml, one day at 37° C.
# Protocol: as §1, §2
# Pseudomonas aeruginosa = test: Antibacterial spectrum, Pseudomonas aeruginosa; type: cell-based; conditions: 10 mcg/ml, one day at 37° C.
# Protocol: as §1, §2
# Candida krusei = test: MIC, complete inhibition of growth, Candida krusei; type: cell-based
# Protocol: as §1
# Aspergillus niger = test: MIC, complete inhibition of growth, Aspergillus niger; type: cell-based
# Protocol: as §1
# Candida albicans 11651 = test: MIC, complete inhibition of growth, Candida albicans 11651; type: cell-based
# Protocol: as §1
# Trichophyton acuminatum = test: MIC, complete inhibition of growth, Trichophyton acuminatum; type: cell-based; conditions: for MIC: peptone-dextrose medium, 2 to 5 days at 28° C.
# Protocol: as §1
# Candida tropicalis = test: MIC, complete inhibition of growth, Candida tropicalis; type: cell-based
# Protocol: as §1
# [4] = test system: Trichophyton mentagrophytes; test: MIC, complete inhibition of growth, Trichophyton mentagrophytes; type: cell-based; conditions: for MIC: peptone-dextrose medium, 2 to 5 days at 28° C.
# Protocol: as §1
# [5] = peptone-dextrose medium, 2 to 5 days at 28° C.
# [6] = Candida albicans 11651, peptone-dextrose medium, 2 to 5 days at 28° C.
# [7] = peptone-dextrose medium, 2 to 5 days at 28° C., read-out: MIC
compound,measurement,setting,value
Candicidin,ED50 on Trichomonas vaginalis,Trichomonas vaginalis [1],24 mg/L
CNc1ccc(C(=O)CC(O)C2C/C=C/C=C/C=C/C=C/C=C/C=C/C=C/C(OC3OC(C)C(O)C(N)C3O)CC(O)C(C(=O)O)C(O)CC(O)CC(O)CC(O)CC(O)CC(O)CC(O)CC(O)CC(=O)O2)cc1 (centres unmarked) [Lucknomycin],inhibiting activity,Staphylococcus aureus,inactive; also recorded: does not exert an inhibiting activity
same,inhibiting activity,Streptococcus faecalis,inactive; also recorded: does not exert an inhibiting activity
same,Number of cured rats/infested rats,Candida albicans; after 4 administrations,14/16
same,Number of cured rats/infested rats,Candida albicans; after 8 administrations,13/13
same,Number of cured rats/infested rats,Candida albicans; after 12 administrations,12/12
same,individuals of a culture in full growth killed,Trichomonas vaginalis [2],50%
same,inhibiting activity,[3],inactive; also recorded: does not exert an inhibiting activity
same,inhibiting activity,Proteus mirabilis,inactive; also recorded: does not exert an inhibiting activity
same,LD50,mice; intraperitoneal,5-10 mg./kg. body weight
same,LD50,mice; intravenous,10-20 mg./kg. body weight
same,LD50,mice; oral,> 800 mg./kg. body weight
same,LD50,mice; subcutaneous,> 800 mg./kg. body weight
same,ED50 on Trichomonas vaginalis,Trichomonas vaginalis [1],12 mg/L
same,activity (in words),Trichomoras vaginalis,effective
same,MIC,Trichomoras vaginalis; [5],< 0.05 mg/L
same,inhibiting activity,Klebsiella pneumoniae,inactive; also recorded: does not exert an inhibiting activity
same,Solubility,"Solubility; in 60% methanol, concentrated ethanol (ethanol) and isopropanol",less soluble
same,Solubility,"Solubility; in benzene, acetone, water, chloroform, absolute ethanol, cyclohexane, ethyl acetate and diethyl ether",insoluble
same,Solubility,"Solubility; in pyridine, dimethylformamide and dimethylacetamide",soluble
same,inhibiting activity,Escherichia coli,inactive; also recorded: does not exert an inhibiting activity
same,inhibiting activity,Pseudomonas aeruginosa,inactive; also recorded: does not exert an inhibiting activity
same,activity against growth (in words),Candida krusei,effective
same,MIC,Candida krusei; [5],0.2 to 0.4 mg/L
same,activity against growth (in words),Aspergillus niger,effective
same,MIC,Aspergillus niger; [5],0.5 mg/L
same,activity against growth (in words),Candida albicans 11651; Candida albicans,effective
same,MIC,Candida albicans 11651; [6],0.1 to 0.2 mg/L
same,activity (in words),Trichophyton acuminatum,moderately active
same,MIC,Trichophyton acuminatum,12.5 mg/L
same,activity against growth (in words),Candida tropicalis,effective
same,MIC,Candida tropicalis; [5],0.1 to 0.2 mg/L
same,activity (in words),[4],moderately active
same,MIC,[4],25 mg/L
C[C@@H]1C/C=C/C=C/C=C/C=C/[C@H](O[C@@H]2O[C@H](C)[C@@H](O)[C@H](N)[C@@H]2O)C[C@@H]2O[C@](O)(C[C@@H](O)C[C@H]3O[C@@H]3/C=C/C(=O)O1)C[C@H](O)[C@H]2C(=O)O [Pimaricin],MIC,Trichomoras vaginalis; [7],> 10 mg/L
same,MIC,Aspergillus niger; [7],2.5 mg/L
same,MIC,"Candida albicans 11651; Candida albicans 11651, peptone-dextrose medium, 2 to 5 days at 28° C., read-out: MIC",5 mg/L
"C[C@@H]1[C@H](O)[C@@H](C)/C=C/C=C/CC/C=C/C=C/C=C/C=C/C(O[C@H]2O[C@H](C)[C@@H](O)[C@H](N)[C@@H]2O)CC2O[C@](O)(CC(O)C(O)CCC(O)CC(O)CC(O)CC(=O)O[C@H]1C)CC(O)C2C(=O)O (some centres unmarked) [Nystatin, nystatin]",Number of cured rats/infested rats,Candida albicans; after 4 administrations,5/11
same,Number of cured rats/infested rats,Candida albicans; after 8 administrations,8/11
same,Number of cured rats/infested rats,Candida albicans; after 12 administrations,9/11
same,MIC,Trichomoras vaginalis; [5],> 10 mg/L
same,MIC,Aspergillus niger; [5],5 mg/L
same,MIC,Candida albicans 11651; [6],2.5 mg/L
same,MIC,Trichophyton acuminatum,25 mg/L
same,MIC,[4],25 mg/L
Clc1ccccc1C(c1ccccc1)(c1ccccc1)n1ccnc1 [clotrimazole],Number of cured rats/infested rats,Candida albicans; after 4 administrations,17/18
same,Number of cured rats/infested rats,Candida albicans; after 8 administrations,16/16
same,Number of cured rats/infested rats,Candida albicans; after 12 administrations,17/17
C[C@@H]1[C@H](O)[C@@H](C)/C=C/C=C/C=C/C=C/C=C/C=C/C=C/[C@H](O[C@@H]2O[C@H](C)[C@@H](O)[C@H](N)[C@@H]2O)C[C@@H]2O[C@](O)(C[C@@H](O)C[C@@H](O)[C@H](O)CC[C@@H](O)C[C@@H](O)CC(=O)O[C@H]1C)C[C@H](O)[C@H]2C(=O)O [Amphotericin B],MIC,Trichomoras vaginalis,> 10 mg/L
same,MIC,Aspergillus niger,0.6 mg/L
same,MIC,"Candida albicans 11651; Candida albicans, 11651",1.25 mg/L
Trichomycin,ED50 on Trichomonas vaginalis,Trichomonas vaginalis [1],43 mg/L
Cc1ncc([N+](=O)[O-])n1CCO [Metronidazole],MIC,Trichomoras vaginalis; [7],0.5 mg/L
